Data from patent publication US7671047B2, “Cationically substituted diphenylazetidinones, process for their preparation, medicaments comprising these compounds, and their use” (Sanofi-Aventis Deutschland GmbH, priority 2002, dated 2010).

System: uptake of 14C-cholesterol by the liver (cholesterol absorption)
Assay: Cholesterol absorption test: uptake of 14C-cholesterol by the liver after peroral test meal
Assay type: in vivo, NMRI mice
Conditions: dose at which uptake of 14C-cholesterol by the liver was halved (50%) vs control group; test substance given perorally immediately prior to test meal; mouse
Description: Effect of the Compounds of the Invention on Cholesterol Absorption and ^3H-taurocholic Acid Excretion Using Fecal Excrement of Mice, Rats or Hamsters
NMRI mice, Wistar rats, or Golden Syrian hamsters (in groups of n=4-6) were kept in metabolic cages, where they were fed with a standard diet (Altromin, Lage (Lippe)). The afternoon prior to the administration of the radioactive tracers (^14C-cholesterol), the feed was removed and the animals were adapted to grates.
Additionally, the animals were labeled s.c. with ^3H-TCA (taurocholic acid) (for example 1 μCi/mouse up to 5 μCi/rat) 24 hours prior to the peroral administration of the test meal (^14C-cholesterol in Intralipid® 20, Pharmacia-Upjohn).
Cholesterol absorption test: 0.25 ml/mouse Intralipid® 20 (Pharmacia-Upjohn) ((spiked with 0.25 μCi of ^14C-cholesterol in 0.1 mg of cholesterol) was administered perorally by gavage.
Test substances were prepared separately in 0.5% methylcellulose (Sigma)/5% Solutol (BASF, Ludwigshafen) or a suitable vehicle.
The administration volume of the test substance was 0.5 ml/mouse. The test substance was administered immediately prior to the test meal (Intralipid labeled with ^14C-cholesterol) (cholesterol absorption test).
The feces were collected over a period of 24 h: fecal elimination of ^14C-cholesterol and ^3H-taurocholic acid (TCA) was determined after 24 hours.
The livers were removed and homogenized, and aliquots were incinerated in an oximate (Model 307, Packard) to determine the amount of ^14C-cholesterol which had been taken up/absorbed.
The amount of ^14C-cholesterol taken up by the liver was based on the administered dose. The ED50 values were interpolated from a dose-effect curve as the dose at which the uptake of ^14C-cholesterol by the liver was halved (50%), based on a control group.

| SMILES | ED50 (liver) |
| --- | --- |
| O=C(CCCCC[N+]12CCN(CC1)CC2)NCc1ccc(C2C(CCC(O)c3ccc(F)cc3)C(=O)N2c2ccc(F)cc2)cc1.O=C([O-])C(F)(F)F (centres unmarked) [VII] | 0.1 mg/mouse |
| N=C(N)c1ccc(C2C(CCC(O)c3ccc(F)cc3)C(=O)N2c2ccc(F)cc2)cc1 (centres unmarked) [II, 4-{1-(4-Fluorophenyl)-3-[3-(4-fluorophenyl)-3-hydroxypropyl]-4-oxoazetidin-2-yl}benzamidine] | 0.1 mg/mouse |
| O=C(CCCCCCCCCCC[N+]12CCN(CC1)CC2)NCc1ccc(C2C(CCC(O)c3ccc(F)cc3)C(=O)N2c2ccc(F)cc2)cc1.O=C([O-])C(F)(F)F (centres unmarked) [IX, 1-[11-(4-{1-(4-Fluorophenyl)-3-[3-(4-fluorophenyl)-3-hydroxypropyl]-4-oxoazetidin-2-yl}benzylcarbamoyl)undecyl]-4-aza-1-azoniabicyclo[2.2.2]octane trifluoroacetate] | 0.1 mg/mouse |
| COc1ccc(C2C(CCC(O)c3ccc(F)cc3)C(=O)N2c2ccc(CNC(=O)CCCCCCCCCCC[N+]34CCN(CC3)CC4)cc2)cc1.O=C([O-])C(F)(F)F (centres unmarked) [XI, 1-[11-{4-[3-[3-(4-Fluorophenyl)-3-hydroxypropyl]-2-(4-methoxyphenyl)-4-oxoazetidin-1-yl]benzylcarbamoyl}undecyl)-4-aza-1-azoniabicyclo[2.2.2]octane trifluoroacetate] | 0.3 mg/mouse |
| O=C(CCCCCCCCCCC[N+]12CCN(CC1)CC2)NCc1ccc(N2C(=O)C(CCC(O)c3ccccc3)C2c2ccccc2)cc1.O=C([O-])C(F)(F)F (centres unmarked) [X, 1-[11-{4-[3-(3-Hydroxy-3-phenylpropyl)-2-oxo-4-phenylazetidin-1-yl]benzylcarbamoyl}undecyl)-4-aza-1-azoniabicyclo[2.2.2]octane trifluoroacetate] | <1.0 mg/mouse |
